Reference: patent US8507219B2, “Method of treating inflammation with statins” (MUSC Foundation for Research Development, priority 1997, dated 2013)

How the values were obtained:
NF-kβ = assay type: cell-based, rat; details: LPS 1.0 μg/ml, 1 h
Protocol: Preparation of Nuclear Extracts and Electrophoretic Mobility shift assay Nuclear extracts from stimulated or unstimulated astrocytes (1×10^7 cells) were prepared using the method of Dignam et al. (1983) with slight modification. Cells were harvested, washed twice with ice-cold phosphate-buffered saline and lysed in 400 μl of buffer A (10 mM HEPES, pH 7.9, 10 mM KCl, 2 mM MgCl2, 0.5 mM DTT, 1 mM PMSF, 5 μg/ml aprotinin, 5 μg/ml pepstatin A, and 5 μg/ml leupeptin (Sigma, St. Louis, Mo.) containing 0.1% Nondet P-40 for 15 min on ice, vortexed vigorously for 15 s, and centrifuged at 14,000 rpm for 30 s. The pelleted nuclei were resuspended in 40 μl of buffer B (20 mM HEPES, pH 7.9, 25% (v/v) glycerol, 0.42 M NaCl, 1.5 mM MgCl2, 0.2 mM EDTA, 0.5 mM DTT, 1 mM PMSF, 5 μg/ml aprotinin, 5 μg/ml pepstatin A, and 5 μg/ml leupeptin). After 30 min on ice, lysates were centrifuged at 14,000 rpm for 10 min. Supernatants containing the nuclear proteins were diluted with 20 μl of modified buffer C (20 mM HEPES, pH 7.9, 20% (v/v) glycerol, 0.05 M KCl, 0.2 mM EDTA, 0.5 mM DTT, and 0.5 mM PMSF) and stored at −70° C. until use. Nuclear extracts were used for the electrophoretic mobility shift assay using the NF-kβ DNA binding protein detection system kit (GIBCO/BRL), according to the manufacturer's protocol.
Preparation of nuclear extracts and electrophoretic mobility shift assay Nuclear extracts from stimulated or unstimulated astrocytes (1×10^7 cells) were prepared as described (Dignam et al., 1983) with slight modification. Cells were harvested, washed twice with ice-cold phosphate-buffered saline and lysed in 400 μl of buffer A (10 mM HEPES, pH 7.9, 10 mM KCl, 2 mM MgCl2, 0.5 mM DTT, 1 mM PMSF, 5 μg/ml aprotinin, 5 μg/ml pepstatin A, and 5 μg/ml leupeptin) containing 0.1% Nonidet P40 for 15 min on ice, vortexed vigorously for 15 s, and centrifuged at 14,000 rpm for 30 s. […]

[1] = system: iNOS activity in rat primary astrocytes; experiment: iNOS activity (arginine to citrulline) in homogenates of treated rat primary astrocytes; assay type: cell-based; details: 10 μM
Protocol: NOS activity was measured directly by production of L-[2,3,4,5-^3H]citrulline from L-[2,3,4,5-^3H] arginine (Feinstein et al., 1994a). […] Assays were carried out for 30 to 40 min and the production of L-[2,3,4,5-^3H] citrulline was linear. The reactions were stopped by addition of 800 μl of ice-cold 20 mM HEPES (pH 5.5) followed by addition of 2 ml of Dowex-50W equilibrated in the same buffer. The samples were then centrifuged and the concentration of L-[^3H]citrulline was determined in the supernatant by liquid scintillation counting.
Dose Dependence of Forskolin Inhibition of the LPS Stimulation of iNOS Astrocytes were incubated with different concentrations of forskolin 15 min before the addition of 1 μg/ml LPS, and after 24 h the iNOS activity was measured as nitrite concentrations in the supernatant and conversion of arginine to citrulline in the cellular homogenates (FIG. 1). The level of nitrite and iNOS activity were inhibited to a similar degree at all the concentrations of forskolin tested. […] . […] This may be due to the fact that PKA was already completely activated in extracts of cells incubated with 10 μM forskolin. The PKA activity increased with the increase in forskolin concentration. The reciprocal relationship of production of NO and iNOS activity with PKA activity supports the conclusion that PKA plays a pivotal role in the regulation of iNOS expression in astrocytes.

[2] = system: control human skin fibroblasts; experiment: β-oxidation of lignoceric acid in control human skin fibroblasts; assay type: cell-based
[3] = system: cultured skin fibroblasts of X-ALD; experiment: VLCFA ratios (C26:0/C22:0, C24:0/C22:0) in X-ALD skin fibroblasts; assay type: cell-based, human; details: about 15 days of treatment

Row | Compound | LPS-induced activation of NF-kβ (NF-kβ) | LPS induced iNOS activity and PKA activity [1] | Lignoceric acid β-oxidation [2] | ratios of C26:0/C22:0 and C24:0/C22:0 / level of VLCFA [3]
1 | COc1cccc(-c2cc(=O)c3ccccc3o2)c1N [PD 98059] | inhibits the LPS-induced activation of NF-kB and the induction of iNOS in astrocytes | – | – | –
2 | C=C[C@@]1(C)CC(=O)[C@@H]2[C@@]3(C)CCCC(C)(C)[C@@H]3[C@H](O)[C@H](OC(C)=O)[C@@]2(C)O1 [dideoxyforskolin, 1,9-dideoxyforskolin] | – | neither inhibited the LPS induced iNOS activity nor stimulated the PKA activity | 571.4 ± 39.6 pmol/h/mg protein | had no effect on the ratios of C26:0/C22:0 and C24:0/C22:0
